# Experimental data taken from US12264163B2, “Compounds and methods for treating fibrotic pathologies” (Mayo Foundation for Medical Education and Research, priority 2019, dated 2025).
# Legend:
# YAP/TAZ [1] = assay: YAP/TAZ nuclear localization in IMR-90 and other fibroblasts / mesenchymal cells (immunofluorescence); type: cell-based, human; details: for YAP/TAZ nuclear localization: fibroblasts / mesenchymal cells on plastic, 2 hours
# YAP/TAZ [2] = assay: YAP/TAZ localization in lung alveolar epithelial and endothelial cells; type: cell-based, human; details: pulmonary (alveolar) epithelial and endothelial cells
# Procedure: N=4 (****p<0.0001 vs. 0.1% DMSO vehicle control)
# N=3 (****p<0.0001 vs. 0.1% DMSO vehicle control).
# Human lung fibroblasts and alveolar epithelial cells are treated with MS-9 and influence on YAP/TAZ localization is determined.
# Immunofluorescence Microscopy: Cells were plated into 96 well plates (Corning 3603) in their specific growth media and allowed to attach (8 hours). Media was then exchanged for the indicated conditions for each experiment. Cells were fixed in 3.7% formalin (Sigma-Aldrich), permeabilized in 0.25% Triton X-100 (Sigma-Aldrich) and then blocked with 1% BSA for 1 h. Cells or tissue sections were incubated overnight with mouse monoclonal antibody against αSMA (Sigma-Aldrich F3777), and/or a rabbit monoclonal antibody against YAP/TAZ (Cell Signaling D24E4) diluted 1:200 in PBS with 1% BSA. […] For scoring αSMA positive cells (FIG. 12), an observer blinded to the treatment conditions counted αSMA-positive cells using a visual threshold for bright fibrous staining; a minimum of 200 cells was counted for each condition. YAP/TAZ localization was quantified (FIGS. 6-10, 24-26, and 29-30) using Gen5 (Biotek) software. […] Quantification of double positive (YAP/TAZ and αSMA) cells from lung tissue sections (FIG. 17-21) was performed similarly; however separate thresholds were established for both YAP/TAZ and αSMA. A minimum of 4000 cells was quantified for each mouse.
# NIH-3T3 cells = assay: Matrix remodeling measured by atomic force microscopy; type: cell-based, mouse; details: TGFβ + ascorbic acid 72 hours, then 10 μM DHX 72 hours
# Procedure: NIH-3T3 cells plated onto gelatin-coated tissue culture plates stimulated to deposit matrix with 2 ng/mL TGFβ and 20 μM ascorbic acid for 72 hours prior to AFM microindentation analysis to measure stiffness (elastic modulus). The same dishes were then treated +/−10 μM DHX in the same media for another 72 hours and AFM analysis. The matrices were decellularized and passage 3 NHLFs were plated onto the matrices; after 24 hours RNA was collected and expression of profibrotic genes was analyzed. AFM analysis N=2. 75 indentation measurements were made for each plate. The box and whisker plots show min to max, quartile, and mean from one representative experiment (****p<0.0001 vs. 0.1% DMSO vehicle control) (++p<0.01, +p<0.05 vs. the same culture plate after the first 72 hour incubation). […]
# Matrix Remodeling Measured by Atomic Force Microscopy: NIH-3T3 cells were plated to confluence onto gelatin coated (Cell Biologics) AFM compatible tissue culture dishes (Willco) in DMEM containing 10% FBS. […] Microindentations were performed using a 2.5 μm radius sphere-tipped probe (Novascan, IA, USA) with a spring constant determined at about 100 pN/nm by thermal fluctuation method. For each dish, 3 different areas were analyzed. […] The Young's modulus E was determined by the fitting of force curve by Hertz model using NanoScope Analysis software (Bruker) and considering Poisson's ratio of 0.5. […]
# YAP/TAZ [3] = assay: YAP/TAZ nuclear localization in IMR-90 and other fibroblasts / mesenchymal cells (immunofluorescence); type: cell-based, human; details: cells with lower DRD1 and DRD5 expression than IMR-90
structure (smiles),measurement,setting,value
Oc1cc2c(cc1O)[C@H]1c3ccccc3CN[C@@H]1CC2 (racemic) [Dihydrexidine],YAP/TAZ nuclear localization stimulated by GPCR ligands,"YAP/TAZ [1]; confluent fibroblasts, endothelin-1, lysophosphatidic acid, serotonin, DHX 10 μM",blocked nuclear localization of YAP/TAZ
same,YAP/TAZ nuclear localization,YAP/TAZ [1],reduced nuclear localization of YAP/TAZ
same,YAP/TAZ nuclear localization,YAP/TAZ [1]; listed as DHX,effective at inhibiting YAP/TAZ nuclear localization
same,"potency of inhibition of YAP/TAZ nuclear localization, normal vs IPF lung fibroblasts",YAP/TAZ [1]; normal lung fibroblasts vs those from a patient with IPF,equally potent
same,YAP/TAZ localization in epithelial / endothelial cells,YAP/TAZ [2],no effect on YAP/TAZ localization
same,stiffness of cells and cell-derived matrix (AFM),NIH-3T3 cells,significantly reduced the observed stiffness
same,YAP/TAZ nuclear localization in mesenchymal cells derived from uterine fibroids,YAP/TAZ [3],marginal inhibition of YAP/TAZ nuclear localization
